Reference: patent publication US20130303533A1, “AZOLOPYRIDINE AND AZOLOPYRIMIDINE COMPOUNDS AND METHODS OF USE THEREOF” (AMBIT BIOSCIENCES CORPORATION, priority 2010, published 2013)

Columns and labels:
TYK2 = target: T1, TYK2 (Homo sapiens, UniProt P29597); test: Competition binding assay to determine binding constants (Kd), TYK2
T1 construct: made in house; host or cells: T7 phage display or HEK-293 cells (alternatives)
Description: (§1) Competition Binding Assay to Determine Binding Constants (Kd) of the Compounds Against JAK Kinases
(§2) Competition binding assays used herein were developed, validated and performed as described in Fabian et al., Nature Biotechnology 2005, 23, 329-336. Kinases were produced as fusions to T7 phage (See, Fabian et al. or WO04/015142) or alternatively, the kinases were expressed in HEK-293 cells and subsequently tagged with DNA for PCR detection (See, WO08/005,310). For the binding assays, streptavidin-coated magnetic beads were treated with biotinylated affinity ligands for 30 min at rt to generate affinity resins. The liganded beads were blocked with excess biotin and washed with blocking buffer (SeaBlock (Pierce), 1% BSA, 0.05% Tween 20, 1 mM DTT) to remove unbound ligand and to reduce non-specific binding. Binding reactions were assembled by combining kinase, liganded affinity beads, and test compounds in 1× binding buffer (20% SeaBlock, 0.17×PBS, 0.05% Tween 20, 6 mM DTT). Test compounds were prepared as 100× stocks in DMSO and rapidly diluted into the aqueous environment. DMSO was added to control assays lacking a test compound. Primary screen interactions were performed in polypropylene 384-well plates in a final volume of 34 μL, while Kd determinations were performed in polystyrene 96-well plates in a final volume of 135 μL. The assay plates were incubated at room temperature with shaking for 1 hour, long enough for binding reactions to reach equilibrium, and the affinity beads were washed extensively with wash buffer (1×PBS, 0.05% Tween 20) to remove unbound protein. The beads were then resuspended in elution buffer (1×PBS, 0.05% Tween 20, 2 μM non-biotinylated affinity ligand) and incubated at room temperature with shaking for 30 min. The kinase concentration in the eluates was measured by quantitative PCR. Each kinase was tested individually against each compound. Kds were determined using eleven serial threefold dilutions. A selectivity score, which is a quantitative measure of selectivity of a compound against a panel of enzymes, may be calculated for a compound by dividing the number of enzymes for which a compound meets a set criteria, (for example, a binding constant of 100 nM or less), by the total number of enzymes tested.

JAK3 = target: T2, JAK3 (Homo sapiens, UniProt P52333); test: Competition binding assay to determine binding constants (Kd), JAK3
T2 construct: made in house; host or cells: T7 phage display or HEK-293 cells (alternatives)
T2 sequence (P52333 1-1124): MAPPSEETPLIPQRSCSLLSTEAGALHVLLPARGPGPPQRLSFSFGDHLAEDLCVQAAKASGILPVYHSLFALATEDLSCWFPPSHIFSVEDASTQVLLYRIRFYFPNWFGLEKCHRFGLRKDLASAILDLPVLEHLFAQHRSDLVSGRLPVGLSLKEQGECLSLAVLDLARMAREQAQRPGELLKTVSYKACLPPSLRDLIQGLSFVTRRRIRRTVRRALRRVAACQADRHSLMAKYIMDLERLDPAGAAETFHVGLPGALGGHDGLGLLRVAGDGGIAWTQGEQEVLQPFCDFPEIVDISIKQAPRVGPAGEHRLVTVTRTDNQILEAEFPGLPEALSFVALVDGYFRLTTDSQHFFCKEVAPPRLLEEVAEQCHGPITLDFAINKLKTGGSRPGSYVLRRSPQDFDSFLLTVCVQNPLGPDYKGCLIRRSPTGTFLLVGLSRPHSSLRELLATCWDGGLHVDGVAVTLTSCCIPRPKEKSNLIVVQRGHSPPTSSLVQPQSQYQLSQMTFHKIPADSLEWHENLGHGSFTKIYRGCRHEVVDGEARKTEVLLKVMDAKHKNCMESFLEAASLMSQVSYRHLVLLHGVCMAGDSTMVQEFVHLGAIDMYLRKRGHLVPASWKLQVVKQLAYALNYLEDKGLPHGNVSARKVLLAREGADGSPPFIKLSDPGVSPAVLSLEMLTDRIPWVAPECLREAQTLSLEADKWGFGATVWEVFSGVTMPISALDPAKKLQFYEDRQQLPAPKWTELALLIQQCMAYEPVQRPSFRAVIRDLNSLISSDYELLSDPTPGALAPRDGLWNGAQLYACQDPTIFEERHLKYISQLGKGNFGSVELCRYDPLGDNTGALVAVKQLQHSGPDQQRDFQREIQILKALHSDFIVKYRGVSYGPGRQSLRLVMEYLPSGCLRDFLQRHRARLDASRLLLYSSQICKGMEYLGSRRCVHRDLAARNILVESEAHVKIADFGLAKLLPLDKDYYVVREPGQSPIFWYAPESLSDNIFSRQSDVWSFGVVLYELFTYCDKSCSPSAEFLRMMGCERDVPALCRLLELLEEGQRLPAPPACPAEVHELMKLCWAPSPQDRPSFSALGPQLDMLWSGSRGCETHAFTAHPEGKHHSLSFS
Description: as §1, §2

JAK2 = target: T3, JAK2 (Homo sapiens, UniProt O60674); test: Competition binding assay to determine binding constants (Kd), JAK2
T3 construct: made in house; host or cells: T7 phage display or HEK-293 cells (alternatives)
Description: as §1, §2

[1] = test system: GM-CSFR/JAK2/STAT5 pathway; test: CSTF-1 cell-based reporter assay; conditions: Homo sapiens; csTF-1 cells, GM-CSF at 2 ng/mL, 4 hours, beta-lactamase reporter; read-out: Cell Assay: CS TF-1 reporter assay IC50
Protocol: CSTF-1 Cell-Based Reporter Assay
CSTF-1 cells are derived from the human erythroleukemia cell line that is growth dependent on GM-CSF and has an intact GM-CSFR/JAK2/STAT5 pathway. The cell line contains stably integrated beta-lactamase reporter gene under the control of the […] (irf 1) response element recognized by the activated transcription factor STAT5. csTF-1 cells (Invitrogen K1219) were washed with assay media (97% OPTIMEM/0.5% dialyzed FBS/0.1 mM NEAA/1 mM Na pyr/P/S) and seeded in the same media at 5×10^5 cell/mL in T150 flask. After 16 hour incubation, cells were seeded at 2×10^5 cell/well in 50 μl volume, into Costar, clear bottom, 96-well assay plates. Serial dilutions of compounds were added to the plates with final DMSO concentration at 0.5% and GM-CSF at 2 ng/mL and the plates were then incubated at 30° C. and 5% CO2 for 4 hours. The plates were brought to room temperature before adding Substrate Mixture according to manufacturer's protocol (Invitrogen, Catalog #K1085). The assay plates containing the substrate mixture were incubated in the dark at room temperature for 2 hours. Blue and green fluorescence was measured with excitation at 409 nm and emission at 460 nm (for blue) and excitation at 409 nm and emission at 530 nm (for green) using Spectra Max Gemini EM.

T1 sequence (P29597 whole entry): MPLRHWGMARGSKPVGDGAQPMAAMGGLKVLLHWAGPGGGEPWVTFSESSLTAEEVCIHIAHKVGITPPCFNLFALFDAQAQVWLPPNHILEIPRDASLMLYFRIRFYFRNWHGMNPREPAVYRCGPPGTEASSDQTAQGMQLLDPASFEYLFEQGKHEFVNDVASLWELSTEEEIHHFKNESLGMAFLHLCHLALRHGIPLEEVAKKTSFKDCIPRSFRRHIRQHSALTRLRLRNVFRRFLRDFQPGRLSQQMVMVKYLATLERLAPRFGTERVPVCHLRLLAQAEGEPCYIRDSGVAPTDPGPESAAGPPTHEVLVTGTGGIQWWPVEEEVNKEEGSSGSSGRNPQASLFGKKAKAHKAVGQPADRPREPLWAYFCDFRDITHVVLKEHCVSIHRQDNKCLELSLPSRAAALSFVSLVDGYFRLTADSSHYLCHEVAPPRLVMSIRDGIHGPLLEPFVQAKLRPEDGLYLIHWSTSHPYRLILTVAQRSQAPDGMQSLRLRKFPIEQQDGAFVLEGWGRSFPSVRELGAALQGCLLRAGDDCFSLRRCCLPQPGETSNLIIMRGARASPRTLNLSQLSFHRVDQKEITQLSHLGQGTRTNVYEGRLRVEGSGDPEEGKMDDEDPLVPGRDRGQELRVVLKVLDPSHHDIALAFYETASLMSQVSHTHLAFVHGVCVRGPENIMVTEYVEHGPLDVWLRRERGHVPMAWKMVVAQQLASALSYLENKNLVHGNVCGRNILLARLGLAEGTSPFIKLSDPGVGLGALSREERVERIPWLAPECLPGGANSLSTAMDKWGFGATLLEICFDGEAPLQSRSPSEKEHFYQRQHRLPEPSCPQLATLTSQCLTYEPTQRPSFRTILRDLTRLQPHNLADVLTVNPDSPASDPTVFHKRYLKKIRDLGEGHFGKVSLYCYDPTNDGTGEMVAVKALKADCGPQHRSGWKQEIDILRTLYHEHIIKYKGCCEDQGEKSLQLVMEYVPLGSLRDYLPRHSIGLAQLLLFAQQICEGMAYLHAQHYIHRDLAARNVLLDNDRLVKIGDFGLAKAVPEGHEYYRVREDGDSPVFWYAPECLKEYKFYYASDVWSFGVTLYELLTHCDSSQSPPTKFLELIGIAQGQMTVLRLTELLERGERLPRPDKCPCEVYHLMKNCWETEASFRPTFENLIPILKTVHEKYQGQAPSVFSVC
T3 sequence (O60674 whole entry): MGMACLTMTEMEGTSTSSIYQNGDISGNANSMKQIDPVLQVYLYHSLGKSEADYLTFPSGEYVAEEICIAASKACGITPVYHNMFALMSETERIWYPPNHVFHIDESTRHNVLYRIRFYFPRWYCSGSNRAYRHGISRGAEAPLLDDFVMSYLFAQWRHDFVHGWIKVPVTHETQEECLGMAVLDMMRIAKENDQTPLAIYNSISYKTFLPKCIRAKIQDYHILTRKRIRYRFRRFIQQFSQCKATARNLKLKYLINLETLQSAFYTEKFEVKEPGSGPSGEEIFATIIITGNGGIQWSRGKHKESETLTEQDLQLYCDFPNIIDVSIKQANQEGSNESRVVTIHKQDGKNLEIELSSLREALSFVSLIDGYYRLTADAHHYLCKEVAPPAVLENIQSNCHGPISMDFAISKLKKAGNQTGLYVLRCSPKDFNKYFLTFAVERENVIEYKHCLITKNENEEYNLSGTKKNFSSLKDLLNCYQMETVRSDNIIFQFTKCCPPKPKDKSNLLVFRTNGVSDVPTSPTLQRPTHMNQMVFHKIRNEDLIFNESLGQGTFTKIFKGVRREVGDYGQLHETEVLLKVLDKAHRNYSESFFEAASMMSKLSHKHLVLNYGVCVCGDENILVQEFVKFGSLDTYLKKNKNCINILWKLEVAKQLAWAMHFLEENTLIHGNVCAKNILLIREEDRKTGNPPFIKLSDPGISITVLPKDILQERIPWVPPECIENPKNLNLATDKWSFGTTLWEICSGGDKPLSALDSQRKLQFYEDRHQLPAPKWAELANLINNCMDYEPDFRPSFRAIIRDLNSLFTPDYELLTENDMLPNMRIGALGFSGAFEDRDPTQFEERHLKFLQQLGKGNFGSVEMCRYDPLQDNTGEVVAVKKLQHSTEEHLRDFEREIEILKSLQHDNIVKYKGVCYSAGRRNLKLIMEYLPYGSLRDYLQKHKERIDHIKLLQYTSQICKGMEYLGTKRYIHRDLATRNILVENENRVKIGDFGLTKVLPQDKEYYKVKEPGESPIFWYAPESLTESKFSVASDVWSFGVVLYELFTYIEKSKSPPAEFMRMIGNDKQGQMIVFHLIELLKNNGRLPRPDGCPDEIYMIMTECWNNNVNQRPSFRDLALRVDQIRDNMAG

Kd (TYK2) | Kd (JAK3) | Kd (JAK2) | IC50 [1] | SMILES
≤ 10 nM | 10 to 100 nM | ≤ 1 nM | 100 to 500 nM | Cc1cc(Nc2nc(C(F)(F)c3ccc(F)cc3)nc3nn(C)cc23)n[nH]1 [Example 20, 6-(difluoro(4-fluorophenyl)methyl)-2-methyl-N-(5-methyl-1H-pyrazol-3-yl)-2H-pyrazolo[3,4-d]pyrimidin-4-amine]
≤ 10 nM | ≤ 10 nM | ≤ 1 nM | ≤ 100 nM | Cc1cc(Nc2nc(S(=O)(=O)c3ccc(F)cc3)nc3c2ccn3C)n[nH]1 [Example 9, 2-(4-fluorophenylsulfonyl)-7-methyl-N-(5-methyl-1H-pyrazol-3-yl)-7H-pyrrolo[2,3-d]pyrimidin-4-amine]
≤ 10 nM | 10 to 100 nM | ≤ 1 nM | 100 to 500 nM | Cc1cc(Nc2nc(S(=O)(=O)c3ccc(F)cc3)nc3c2cnn3C2CCOCC2)n[nH]1 [Example 28, 6-(4-fluorophenylsulfonyl)-N-(5-methyl-1H-pyrazol-3-yl)-1-(tetrahydro-2H-pyran-4-yl)-1H-pyrazolo[3,4-d]pyrimidin-4-amine]
≤ 10 nM | ≤ 10 nM | 1 to 10 nM | ≤ 100 nM | Cc1cc(Nc2nc(S(=O)(=O)c3ccc(F)cc3)nc3c2ccn3CCN2CCOCC2)n[nH]1 [Example 19, 2-(4-fluorophenylsulfonyl)-N-(5-methyl-1H-pyrazol-3-yl)-7-(2-morpholinoethyl)-7H-pyrrolo[2,3-d]pyrimidin-4-amine]
≤ 10 nM | ≤ 10 nM | 1 to 10 nM | ≤ 100 nM | Cc1cc(Nc2nc(C(F)(F)c3ccc(F)cc3)nc3nc(N4CCN(C)CC4)sc23)n[nH]1 [Example 38, 5-(difluoro(4-fluorophenyl)methyl)-N-(5-methyl-1H-pyrazol-3-yl)-2-(4-methylpiperazin-1-yl)thiazolo[4,5-d]pyrimidin-7-amine]
≤ 10 nM | ≤ 10 nM | ≤ 1 nM | 100 to 500 nM | Cc1cc(Nc2nc(C(F)(F)c3ccc(F)cc3)nc3nc(N4CCOCC4)sc23)n[nH]1 [Example 37, 5-(difluoro(4-fluorophenyl)methyl)-N-(5-methyl-1H-pyrazol-3-yl)-2-morpholinothiazolo[4,5-d]pyrimidin-7-amine]
≤ 10 nM | 10 to 100 nM | 1 to 10 nM | 100 to 500 nM | Cc1cc(Nc2nc(C(F)(F)c3ccc(F)cc3)nc3ncsc23)n[nH]1 [Example 41, 5-(difluoro(4-fluorophenyl)methyl)-N-(5-methyl-1H-pyrazol-3-yl)thiazolo[4,5-d]pyrimidin-7-amine]

Continued, molecule first:

SMILES | Kd (TYK2) | Kd (JAK3) | Kd (JAK2) | IC50 [1]
[O-][S+](c1ccc(F)cc1)c1nc(Nc2cc[nH]n2)c2cc[nH]c2n1 (racemic) [Example 1, (R,S)-2-(4-fluorophenylsulfinyl)-N-(1H-pyrazol-3-yl)-7H-pyrrolo[2,3-d]pyrimidin-4-amine] | ≤ 10 nM | 10 to 100 nM | ≤ 1 nM | ≤ 100 nM
O=S(=O)(c1ccc(F)cc1)c1nc(Nc2cc[nH]n2)c2cc[nH]c2n1 [Example 3, 2-(4-fluorophenylsulfonyl)-N-(1H-pyrazol-3-yl)-7H-pyrrolo[2,3-d]pyrimidin-4-amine] | ≤ 10 nM | ≤ 10 nM | ≤ 1 nM | ≤ 100 nM
Cn1ccc2c(Nc3cc[nH]n3)nc([S+]([O-])c3ccc(F)cc3)nc21 (racemic) [Example 5, (R,S)-2-(4-fluorophenylsulfinyl)-7-methyl-N-(1H-pyrazol-3-yl)-7H-pyrrolo[2,3-d]pyrimidin-4-amine] | ≤ 10 nM | 10 to 100 nM | ≤ 1 nM | ≤ 100 nM
Cc1cc(Nc2nc(S(=O)(=O)c3ccc(F)cc3)nc3c2cnn3-c2ccccc2)n[nH]1 [Example 31, 6-(4-fluorophenylsulfonyl)-N-(5-methyl-1H-pyrazol-3-yl)-1-phenyl-1H-pyrazolo[3,4-d]pyrimidin-4-amine] | 10 to 100 nM | > 100 nM | 1 to 10 nM | > 500 nM
CS(=O)(=O)CCn1ccc2c(Nc3cc[nH]n3)nc(S(=O)(=O)c3ccc(F)cc3)nc21 [Example 18, 2-(4-fluorophenylsulfonyl)-7-(2-(methylsulfonyl)ethyl)-N-(1H-pyrazol-3-yl)-7H-pyrrolo[2,3-d]pyrimidin-4-amine] | ≤ 10 nM | ≤ 10 nM | ≤ 1 nM | 100 to 500 nM
Cc1cc(Nc2nc(S(=O)(=O)c3ccc(F)cc3)nc3[nH]ccc23)n[nH]1 [Example 4, 2-(4-fluorophenylsulfonyl)-N-(5-methyl-1H-pyrazol-3-yl)-7H-pyrrolo[2,3-d]pyrimidin-4-amine] | ≤ 10 nM | ≤ 10 nM | ≤ 1 nM | ≤ 100 nM
Cc1cc(Nc2nc(S(=O)(=O)c3ccc(F)cc3)nc3c2ccn3CC(=O)N(C)C)n[nH]1 [Example 15] | ≤ 10 nM | ≤ 10 nM | ≤ 1 nM | 100 to 500 nM
CCn1ccc2c(Nc3cc(OC)[nH]n3)nc(S(=O)(=O)c3ccc(F)cc3)nc21 [Example 14, 7-ethyl-2-(4-fluorophenylsulfonyl)-N-(5-methoxy-1H-pyrazol-3-yl)-7H-pyrrolo[2,3-d]pyrimidin-4-amine] | ≤ 10 nM | ≤ 10 nM | ≤ 1 nM | ≤ 100 nM
Cc1cc(Nc2nc(S(=O)(=O)c3ccc(F)cc3)nc3c2ccn3C(C)C)n[nH]1 [Example 10, 2-(4-fluorophenylsulfonyl)-7-isopropyl-N-(5-methyl-1H-pyrazol-3-yl)-7H-pyrrolo[2,3-d]pyrimidin-4-amine] | ≤ 10 nM | ≤ 10 nM | ≤ 1 nM | ≤ 100 nM
Cn1ccc2c(Nc3cc[nH]n3)nc(S(=O)(=O)c3ccc(F)cc3)nc21 [Example 6, 2-(4-fluorophenylsulfonyl)-7-methyl-N-(1H-pyrazol-3-yl)-7H-pyrrolo[2,3-d]pyrimidin-4-amine] | ≤ 10 nM | ≤ 10 nM | ≤ 1 nM | ≤ 100 nM
